Legend:
obsessive sexual desire = conditions: two cases; regular fixed dosage regimen over a longer period; after several treatments; cited from earlier work
[1] = test system: patients with paraphilic patterns of sexual excitation/arousal; assay: Case reports: acute nasal naloxone in two paedophilic patients, self-rated impulse control; assay type: in vivo, human; conditions: one or two puffs of nasal spray, 0.2 mg Naloxonhydrochloride per puff
Text: In the clinical application (two patients with paraphilic patterns of sexual excitation/arousal, both paedophiles, but with individual symptomatology) the following observations were made:
The patient is a person with paedophile inclination towards sexually immature girls (in addition to their predominant orientation towards adult women). In their first marriage they had repeatedly abused the child of their spouse […] (touching the genitals of the child, as well as having themself touched until reaching the climax). These crimes have not yet become known or led to any form of legal prosecution, and this first marriage is divorced since several years. Owing to their job as music teacher the patient was increasingly in contact with girls of the preferred age during the recent two years; the patient was very worried (and this worry was justified) that they might exploit the situation for the sexual abuse of their pupils. In the course of treatment at the Institute for Sexual Medicine of the Charité University Clinic of Berlin the patient has changed their professional field so that they are mainly involved in the treatment of grown-ups. […]

SMILES | frequency of obsessive sexual desire (obsessive sexual desire) | sexual interest in the child ([1]; patient 1 (marked expression of symptoms)) | sexual interest in child one ([1]; patient 2 (moderate expression of symptoms))
O=C1CC[C@@]2(O)[C@H]3Cc4ccc(O)c5c4[C@@]2(CCN3CC2CC2)C1O5 (stereo partly drawn) [Naltrexon, 17-cyclopropylmethyl-3,14-dihydroxy-4,5-epoxy-morphinan-6-on] | reduction in frequency of obsessive sexual desire could be observed | – | –
C=CCN1CC[C@]23c4c5ccc(O)c4O[C@H]2C(=O)CC[C@@]3(O)[C@H]1C5 [naloxone, 17-allyl-3,14-dihydroxy-4,5-epoxy-morphinan-6-on] | – | sufficient reduction of their sexual interest in the child | reduction of their sexual interest in child one

— US20120083505A1, “Use of opioid receptor antagonists for acute treatment of paraphilic arousal states” (priority 2009, published 2012)
